Measurements taken from patent US10975093B2, “Fused 1,4-diazepines as BET protein degraders” (THE REGENTS OF THE UNIVERSITY OF MICHIGAN, priority 2016, dated 2021).

Legend:
Format in all cases: cell-based
[1] = system: MDA-MB-468; test: Cell growth inhibition, CellTiter-Glo Luminescent Cell Viability Assay, MDA-MB-468; details: Homo sapiens, 96 h, MDA-MB-468 cells, 4 days incubation
Method: (§1) Cell growth inhibitory activity of representative Compounds of the Disclosure was determined in various cell lines using CellTiter-Glo® Luminescent Cell Viability Assay. Cells were seeded in 384-well white opaque cell culture plates at a density of 2,000 cells/well with serially diluted compounds and incubated at 37° C. in an atmosphere of 95% air and 5% CO2 for 4 days. Cell viability was determined using the CellTiter-Glo® Luminescent Cell Viability Assay Kit (Promega, Madison, Wis.) according to the manufacture's instruction. Briefly, a volume of CellTiter-Glo® Reagent equal to the volume of cell culture medium was added to each well, and then the plates were incubated at room temperature for 10-20 minutes. The luminescent signal was measured using a Tecan Infinite M1000 multimode microplate reader (Tecan, Morrisville, N.C.). The half maximal inhibitory concentration (IC50) was calculated using the GraphPad Prism 5 software (GraphPad Software, La Jolla, Calif.).

[2] = system: MDA-MB-231; test: Cell growth inhibition, CellTiter-Glo Luminescent Cell Viability Assay, MDA-MB-231; details: Homo sapiens, MDA-MB-231 cells, 4 days incubation
How it was run: (§2)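 IC50 values come from CellTiter-Glo ATP luminescence after a 4-day exposure to a compound dilution series. Seeding was 2,000 cells per well at 37° C under 5% CO2, with reagent read after 10-20 min at room temperature.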

[3] = system: MOLM-13; test: Cell growth inhibition, CellTiter-Glo Luminescent Cell Viability Assay, MOLM-13; details: Homo sapiens, MOLM-13 cells, 4 days incubation
How it was run: as §2

[4] = system: RS4; 11; test: Cell growth inhibition, CellTiter-Glo Luminescent Cell Viability Assay, RS4;11; details: Homo sapiens, 96 h, RS4;11 cells, 4 days incubation
Method: as §1

| IC50 ([2]; MDA-MB-231, 96 h) [nM] | IC50 ([3]; MOLM-13, 96 h) [nM] | Structure (SMILES) | IC50 [1] [nM] | IC50 ([2]; 96 h) [nM] | IC50 ([3]; 96 h) [nM] | IC50 [4] [nM] |
| --- | --- | --- | --- | --- | --- | --- |
| – | – | Cc1c(C#Cc2ccc(CCCCNc3cccc4c3CN(C3CCC(=O)NC3=O)C4=O)cn2)sc2c1C(c1ccc(Cl)cc1)=NCc1nnc(C)n1-2 (stereo not shown) [Cpd. No. 7, 3-(4-((4-(6-((4-(4-chlorophenyl)-3,9-dimethyl-6H-thieno[3,2-f][1,2,4]triazolo[4,3-a][1,4]diazepin-2-yl)ethynyl)pyridin-3-yl)butyl)amino)-1-oxoisoindolin-2-yl)piperidine-2,6-dione] | 10.7 | 6.08 | 4.2 | 0.81 |
| < 0.015 | < 0.015 | Cc1c(C#Cc2cnn(CCCCCc3cccc4c3CN(C3CCC(=O)NC3=O)C4=O)c2)sc2c1C(c1ccc(Cl)cc1)=N[C@@H](C)c1nnc(C)n1-2 (stereo partly drawn) [Cpd. No. 24, 3-(4-(5-(4-(((S)-4-(4-chlorophenyl)-3,6,9-trimethyl-6H-thieno[3,2-f][1,2,4]triazolo[4,3-a][1,4]diazepin-2-yl)ethynyl)-1H-pyrazol-1-yl)pentyl)-1-oxoisoindolin-2-yl)piperidine-2,6-dione] | < 0.015 | – | – | < 0.015 |
| – | – | Cc1c(C#Cc2ccc(CCCCNc3cccc4c3CN(C3CCC(=O)NC3=O)C4=O)cn2)sc2c1C(c1ccc(Cl)cc1)=N[C@@H](C)c1nnc(C)n1-2 (stereo partly drawn) [Cpd. No. 8, 3-(4-((4-(6-(((S)-4-(4-chlorophenyl)-3,6,9-trimethyl-6H-thieno[3,2-f][1,2,4]triazolo[4,3-a][1,4]diazepin-2-yl)ethynyl)pyridin-3-yl)butyl)amino)-1-oxoisoindolin-2-yl)piperidine-2,6-dione] | 0.65 | 0.17 | 0.26 | 0.19 |
| – | – | Cc1c(C#Cc2cn(CCCCNc3cccc4c3CN(C3CCC(=O)NC3=O)C4=O)nn2)sc2c1C(c1ccc(Cl)cc1)=NCc1nnc(C)n1-2 (stereo not shown) [Cpd. No. 5, 3-(4-((4-(4-((4-(4-chlorophenyl)-3,9-dimethyl-6H-thieno[3,2-f][1,2,4]triazolo[4,3-a][1,4]diazepin-2-yl)ethynyl)-1H-1,2,3-triazol-1-yl)butyl)amino)-1-oxoisoindolin-2-yl)piperidine-2,6-dione] | 26.1 | 22.8 | 3.6 | 0.29 |
| 24.2 | 9.1 | Cc1c(C#Cc2cnn(CCCC#Cc3cccc4c3C(=O)N(C3CCC(=O)NC3=O)C4=O)c2)sc2c1C(c1ccc(Cl)cc1)=NCc1nnc(C)n1-2 (stereo not shown) [Cpd. No. 25, 4-(5-(4-((4-(4-chlorophenyl)-3,9-dimethyl-6H-thieno[3,2-f][1,2,4]triazolo[4,3-a][1,4]diazepin-2-yl)ethynyl)-1H-pyrazol-1-yl)pent-1-yn-1-yl)-2-(2,6-dioxopiperidin-3-yl)isoindoline-1,3-dione] | 34.9 | – | – | 1 |
| – | – | Cc1c(C#Cc2cn(CCCCCc3cccc4c3CN(C3CCC(=O)NC3=O)C4=O)nn2)sc2c1C(c1ccc(Cl)cc1)=NCc1nnc(C)n1-2 (stereo not shown) [Cpd. No. 3, 3-(4-(5-(4-((4-(4-chlorophenyl)-3,9-dimethyl-6H-thieno[3,2-f][1,2,4]triazolo[4,3-a][1,4]diazepin-2-yl)ethynyl)-1H-1,2,3-triazol-1-yl)pentyl)-1-oxoisoindolin-2-yl)piperidine-2,6-dione] | 3.1 | 3.5 | 1 | 0.27 |
| 0.9 | 0.9 | Cc1c(C#Cc2cnn(CCCCNc3cccc4c3C(=O)N(C3CCC(=O)NC3=O)C4=O)c2)sc2c1C(c1ccc(Cl)cc1)=N[C@@H](C)c1nnc(C)n1-2 (stereo partly drawn) [Cpd. No. 22, 4-((4-(4-(((S)-4-(4-chlorophenyl)-3,6,9-trimethyl-6H-thieno[3,2-f][1,2,4]triazolo[4,3-a][1,4]diazepin-2-yl)ethynyl)-1H-pyrazol-1-yl)butyl)amino)-2-(2,6-dioxopiperidin-3-yl)isoindoline-1,3-dione] | 1.8 | – | – | 0.2 |
| – | – | Cc1c(C#Cc2cn(CCCC#Cc3cccc4c3CN(C3CCC(=O)NC3=O)C4=O)nn2)sc2c1C(c1ccc(Cl)cc1)=NCc1nnc(C)n1-2 (stereo not shown) [Cpd. No. 1, 3-(4-(5-(4-((4-(4-chlorophenyl)-3,9-dimethyl-6H-thieno[3,2-f][1,2,4]triazolo[4,3-a][1,4]diazepin-2-yl)ethynyl)-1H-1,2,3-triazol-1-yl)pent-1-yn-1-yl)-1-oxoisoindolin-2-yl)piperidine-2,6-dione] | 10 | 8.1 | 1.16 | 0.25 |
| – | – | Cc1c(C#Cc2cn(CCCC#Cc3cccc4c3CN(C3CCC(=O)NC3=O)C4=O)nn2)sc2c1C(c1ccc(Cl)cc1)=N[C@@H](C)c1nnc(C)n1-2 (stereo partly drawn) [Cpd. No. 2, 3-(4-(5-(4-(((S)-4-(4-chlorophenyl)-3,6,9-trimethyl-6H-thieno[3,2-f][1,2,4]triazolo[4,3-a][1,4]diazepin-2-yl)ethynyl)-1H-1,2,3-triazol-1-yl)pent-1-yn-1-yl)-1-oxoisoindolin-2-yl)piperidine-2,6-dione] | 0.27 | 0.19 | 0.4 | < 0.0015 |
| > 100 | 32 | Cc1c(C#Cc2cn(CCCC#Cc3cccc4c3C(=O)N(C3CCC(=O)NC3=O)C4=O)cn2)sc2c1C(c1ccc(Cl)cc1)=NCc1nnc(C)n1-2 (stereo not shown) [Cpd. No. 27, 4-(5-(4-((4-(4-chlorophenyl)-3,9-dimethyl-6H-thieno[3,2-f][1,2,4]triazolo[4,3-a][1,4]diazepin-2-yl)ethynyl)-1H-imidazol-1-yl)pent-1-yn-1-yl)-2-(2,6-dioxopiperidin-3-yl)isoindoline-1,3-dione] | > 100 | – | – | > 10 |
| 3.8 | 1.1 | Cc1c(C#Cc2cnn(CCCCNc3cccc4c3C(=O)N(C3CCC(=O)NC3=O)C4=O)c2)sc2c1C(c1ccc(Cl)cc1)=NCc1nnc(C)n1-2 (stereo not shown) [Cpd. No. 21, 4-((4-(4-((4-(4-chlorophenyl)-3,9-dimethyl-6H-thieno[3,2-f][1,2,4]triazolo[4,3-a][1,4]diazepin-2-yl)ethynyl)-1H-pyrazol-1-yl)butyl)amino)-2-(2,6-dioxopiperidin-3-yl)isoindoline-1,3-dione] | 6.5 | – | – | 0.3 |
| – | – | Cc1c(C#Cc2cn(CCCCCc3cccc4c3CN(C3CCC(=O)NC3=O)C4=O)nn2)sc2c1C(c1ccc(Cl)cc1)=N[C@@H](C)c1nnc(C)n1-2 (stereo partly drawn) [Cpd. No. 4, 3-(4-(5-(4-(((S)-4-(4-chlorophenyl)-3,6,9-trimethyl-6H-thieno[3,2 f][1,2,4]triazolo[4,3-a][1,4]diazepin-2-yl)ethynyl)-1H-1,2,3-triazol-1-yl)pentyl)-1-oxoisoindolin-2-yl)piperidine-2,6-dione] | < 0.015 | < 0.015 | 0.3 | < 0.0015 |
| – | – | Cc1c(C#Cc2cn(CCCCNc3cccc4c3CN(C3CCC(=O)NC3=O)C4=O)nn2)sc2c1C(c1ccc(Cl)cc1)=N[C@@H](C)c1nnc(C)n1-2 (stereo partly drawn) [Cpd. No. 6, 3-(4-((4-(4-(((S)-4-(4-chlorophenyl)-3,6,9-trimethyl-6H-thieno[3,2-f][1,2,4]triazolo[4,3-a][1,4]diazepin-2-yl)ethynyl)-1H-1,2,3-triazol-1-yl)butyl)amino)-1-oxoisoindolin-2-yl)piperidine-2,6-dione] | 1.7 | 2.3 | 0.77 | < 0.0015 |
| > 100 | 66.1 | Cc1c(C#Cc2cncn2CCCC#Cc2cccc3c2CN(C2CCC(=O)NC2=O)C3=O)sc2c1C(c1ccc(Cl)cc1)=NCc1nnc(C)n1-2 (stereo not shown) [Cpd. No. 28, 3-(4-(5-(5-((4-(4-chlorophenyl)-3,9-dimethyl-6H-thieno[3,2-f][1,2,4]triazolo[4,3-a][1,4]diazepin-2-yl)ethynyl)-1H-imidazol-1-yl)pent-1-yn-1-yl)-1-oxoisoindolin-2-yl)piperidine-2,6-dione] | > 100 | – | – | > 10 |
| > 100 | 22.8 | Cc1c(C#Cc2cncn2CCCC#Cc2cccc3c2C(=O)N(C2CCC(=O)NC2=O)C3=O)sc2c1C(c1ccc(Cl)cc1)=NCc1nnc(C)n1-2 (stereo not shown) [Cpd. No. 29, 4-(5-(5-((4-(4-chlorophenyl)-3,9-dimethyl-6H-thieno[3,2-f][1,2,4]triazolo[4,3-a][1,4]diazepin-2-yl)ethynyl)-1H-imidazol-1-yl)pent-1-yn-1-yl)-2-(2,6-dioxopiperidin-3-yl)isoindoline-1,3-dione] | > 100 | – | – | 7 |
| 1.7 | 1.9 | Cc1c(C#Cc2cnn(CCCCCc3cccc4c3CN(C3CCC(=O)NC3=O)C4=O)c2)sc2c1C(c1ccc(Cl)cc1)=NCc1nnc(C)n1-2 (stereo not shown) [Cpd. No. 23, 3-(4-(5-(4-((4-(4-chlorophenyl)-3,9-dimethyl-6H-thieno[3,2-f][1,2,4]triazolo[4,3-a][1,4]diazepin-2-yl)ethynyl)-1H-pyrazol-1-yl)pentyl)-1-oxoisoindolin-2-yl)piperidine-2,6-dione] | 4.2 | – | – | 0.3 |
